ChEMBL document CHEMBL1144787, “Insect antifeedant sesquiterpene acetals from the liverwort Lepidolaena clavigera. 2. structures, artifacts, and activity” (J Nat Prod, 2008)

Experiments:
Tineola bisselliella [1] = test: Survival of Tineola bisselliella larvae at 0.1% w/w relative to control; assay type: functional
[2] = Antifeedant activity in Tineola bisselliella larvae assessed as loss in wool weight at 0.1% w/w relative to control; assay type: functional
[3] = Cytotoxicity against monkey BSC cells assessed as zone of inhibition at 30 ug/disc; assay type: cell-based, Macaca mulatta; details: rhesus monkey
Eurhopalus australis [4] = test: Survival of Anthrenocerus australis larvae at 0.025% w/w relative to control; assay type: functional
[5] = Antifeedant activity in Anthrenocerus australis larvae assessed as loss in wool weight at 0.05% w/w relative to control; assay type: functional
Eurhopalus australis [6] = test: Survival of Anthrenocerus australis larvae at 0.05% w/w relative to control; assay type: functional
[7] = Antifeedant activity in Anthrenocerus australis larvae assessed as loss in wool weight at 0.025% w/w relative to control; assay type: functional
Eurhopalus australis [8] = test: Survival of Anthrenocerus australis larvae at 0.1% w/w relative to control; assay type: functional
[9] = Antifeedant activity in Anthrenocerus australis larvae assessed as loss in wool weight at 0.1% w/w relative to control; assay type: functional
[10] = Cytotoxicity against monkey BSC cells assessed as zone of inhibition at 60 ug/disc; assay type: cell-based, Macaca mulatta; details: rhesus monkey
Tineola bisselliella [11] = test: Antifeedant activity in Tineola bisselliella larvae assessed as loss in wool weight at 0.01% w/w relative to control; assay type: functional
[12] = Antifeedant activity in Anthrenocerus australis larvae assessed as loss in wool weight at 0.01% w/w relative to control; assay type: functional
Tineola bisselliella [13] = test: Survival of Tineola bisselliella larvae at 0.01% w/w relative to control; assay type: functional
Eurhopalus australis [14] = test: Survival of Anthrenocerus australis larvae at 0.01% w/w relative to control; assay type: functional

Row | Compound | survival at 0.1 % strength (Tineola bisselliella [1]) [%] | Activity [2] [%] | inhibition zone (IZ) [3] [mm] | survival at 0.025 % strength (Eurhopalus australis [4]) [%] | Activity [5] [%] | survival at 0.05 % strength (Eurhopalus australis [6]) [%] | Activity [7] [%] | survival at 0.1 % strength (Eurhopalus australis [8]) [%] | Activity [9] [%] | inhibition zone (IZ) [10] [mm] | Activity (Tineola bisselliella [11]) [%] | Activity [12] [%] | survival at 0.01 % strength (Tineola bisselliella [13]) [%] | survival at 0.01 % strength (Eurhopalus australis [14]) [%]
1 | CC(=O)OC(C(=O)C=C(C)C)[C@]12[C@@H](OC(C)=O)O[C@@H]3C=C(C)[C@H]1C[C@@H]32 (stereo partly drawn) [CLAVIGERIN A] | 95 | 2 | 1 | – | – | – | – | – | – | – | – | – | – | –
2 | CC(=O)O[C@H]1O[C@@H]2C=C(C)[C@H]3C[C@@H]2[C@@]13CC(=O)C=C(C)C [CLAVIGERIN B] | 27 | -74 | 1 | 98 | -79 | 98 | -34 | 95 | -78 | – | – | – | – | –
3 | CC(=O)O[C@H]1O[C@@H]2C=C(C)[C@H]3C[C@@H]2[C@@]13CC(=O)CC(C)C [CLAVIGERIN C] | 5 | -95 | > 4 | 98 | -62 | 97 | -50 | 96 | -86 | – | – | – | – | –
4 | CO[C@H]1O[C@@H]2C=C(C)[C@H]3C[C@@H]2[C@@]13CC(=O)CC(C)C [METHOXY CLAVIGERIN C] | 86 | -12 | – | – | – | – | – | – | – | 1 | – | – | – | –
5 | CC1(C)C(C=C(Cl)Cl)C1C(=O)OCc1cccc(Oc2ccccc2)c1 (stereo not drawn) [PERMETHRIN] | – | – | – | – | – | – | – | – | – | – | -100 | -100 | 0 | 96
